This is an account of results in patent publication US7307089B2, “Aryloxy quinolines and uses thereof” (Roche Palo Alto LLC, priority 2005, dated 2007).

Where a name gives a salt, the structure may show the parent alone.

Data set [1] has as its target T1, recombinant human 5-HT6 receptor (Homo sapiens, UniProt P50406).
T1 construct: expressed in transfected cells; membranes used
As to the kind of experiment: Radioligand binding studies: competition for [3H]LSD binding in HEK293 cell membranes. As to conditions: [3H]LSD (5 nM) displacement, membranes of HEK293 cells stably expressing the receptor, 60 min at 37° C., pH 7.4. The method, then:
Radioligand Binding Studies
This example illustrates in vitro radioligand binding studies of compound of formula I.
The binding activity of compounds of this invention in vitro was determined as follows. Duplicate determinations of ligand affinity are made by competing for binding of [^3H]LSD in cell membranes derived from HEK293 cells stably expressing recombinant human 5-HT6 receptor. This cell line was prepared by the method described by Monsma et al., Molecular Pharmacology, Vol. 43 pp. 320-327 (1993).
All determinations were made in assay buffer containing 50 mM Tris-HCl, 10 mM MgSO4, 0.5 mM EDTA, 1 mM ascorbic acid, pH 7.4 at 37° C., in a 250 microliter reaction volume. Assay tubes containing [^3H] LSD (5 nM), competing ligand, and membrane were incubated in a shaking water bath for 60 min. at 37° C., filtered onto Packard GF-B plates (pre-soaked with 0.3% PEI) using a Packard 96 well cell harvester and washed 3 times in ice cold 50 mM Tris-HCl. Bound [^3H] LSD was determined as radioactive counts per minute using Packard TopCount.
Displacement of [3H]LSD from the binding sites was quantified by fitting concentration-binding data to a 4-parameter logistic equation:
[formula] where Hill is the Hill slope, [ligand] is the concentration of competing radioligand and IC50 is the concentration of radioligand producing half-maximal specific binding of radioligand. […]

T1 sequence (P50406 whole entry): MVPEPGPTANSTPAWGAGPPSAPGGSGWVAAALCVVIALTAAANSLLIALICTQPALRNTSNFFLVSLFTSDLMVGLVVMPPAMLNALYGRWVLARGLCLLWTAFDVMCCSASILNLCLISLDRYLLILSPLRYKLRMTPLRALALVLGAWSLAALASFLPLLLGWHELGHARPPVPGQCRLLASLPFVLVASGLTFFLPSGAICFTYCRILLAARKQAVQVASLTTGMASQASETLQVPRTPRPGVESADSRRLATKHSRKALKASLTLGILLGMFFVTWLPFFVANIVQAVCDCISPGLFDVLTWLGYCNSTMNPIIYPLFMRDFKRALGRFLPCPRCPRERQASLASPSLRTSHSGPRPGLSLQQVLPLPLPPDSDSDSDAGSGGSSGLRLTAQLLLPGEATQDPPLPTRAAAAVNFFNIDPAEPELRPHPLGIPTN

For orientation: melting point means the temperature of the solid-liquid transition. Turning to `COc1cccc(Oc2c(C)cnc3c(N4CCNCC4)cccc23)c1` (as salt: hydrochloride) [Compound 2, 4-(3-Methoxy-phenoxy)-3-methyl-8-piperazin-1-yl-quinoline], the melting point was 254 to 255 °C (dec.).
Broadly, the Ki is a measure of affinity in units of concentration, obtained from inhibition or displacement. Consider `COc1cc(N2CCNCC2)c2ncc(C)c(Oc3ccccc3)c2c1` [Compound 10, 6-Methoxy-3-methyl-4-phenoxy-8-piperazin-1-yl-quinoline], for which, in data set [1], the inhibition constant Ki is roughly 1 nM.
`Cc1cnc2c(N3CCNCC3)cccc2c1Oc1ccccc1` (as salt: TFA) showed a melting point of 143 to 144 °C.
